Results as given in ChEMBL document CHEMBL5291721, “A preclinical secondary pharmacology resource illuminates target-adverse drug reaction associations of marketed drugs” (Nat Commun, 2023).

Experiments:
[1] = target: Beta-1 adrenergic receptor (Homo sapiens, UniProt P08588); format: functional
[2] = target: T1, Type-1 angiotensin II receptor (Homo sapiens, UniProt P30556)
T1 sequence (P30556 whole entry): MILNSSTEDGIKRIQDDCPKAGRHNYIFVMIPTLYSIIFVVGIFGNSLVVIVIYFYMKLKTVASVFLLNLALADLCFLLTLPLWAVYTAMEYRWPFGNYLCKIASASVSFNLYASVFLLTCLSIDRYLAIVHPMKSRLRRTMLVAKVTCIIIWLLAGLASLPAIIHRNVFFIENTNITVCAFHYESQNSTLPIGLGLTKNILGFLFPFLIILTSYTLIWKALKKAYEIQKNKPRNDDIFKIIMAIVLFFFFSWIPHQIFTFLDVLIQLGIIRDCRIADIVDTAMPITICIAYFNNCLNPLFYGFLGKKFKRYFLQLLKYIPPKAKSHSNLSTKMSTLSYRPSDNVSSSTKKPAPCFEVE

Adenosine receptor A3 = target: T2, Adenosine receptor A3 (Homo sapiens, UniProt P0DMS8)
T2 sequence (P0DMS8 whole entry): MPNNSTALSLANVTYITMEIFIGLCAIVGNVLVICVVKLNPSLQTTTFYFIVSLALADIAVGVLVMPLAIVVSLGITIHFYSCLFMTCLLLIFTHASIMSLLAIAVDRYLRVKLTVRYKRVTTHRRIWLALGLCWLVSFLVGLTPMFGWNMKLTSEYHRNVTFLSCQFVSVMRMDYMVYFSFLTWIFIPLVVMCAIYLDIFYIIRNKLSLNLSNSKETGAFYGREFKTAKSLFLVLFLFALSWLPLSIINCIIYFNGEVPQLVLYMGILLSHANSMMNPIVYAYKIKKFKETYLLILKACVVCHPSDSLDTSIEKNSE

[3] = target: T3, Muscarinic acetylcholine receptor M2 (Homo sapiens, UniProt P08172); format: functional, cell-based
T3 sequence (P08172 whole entry): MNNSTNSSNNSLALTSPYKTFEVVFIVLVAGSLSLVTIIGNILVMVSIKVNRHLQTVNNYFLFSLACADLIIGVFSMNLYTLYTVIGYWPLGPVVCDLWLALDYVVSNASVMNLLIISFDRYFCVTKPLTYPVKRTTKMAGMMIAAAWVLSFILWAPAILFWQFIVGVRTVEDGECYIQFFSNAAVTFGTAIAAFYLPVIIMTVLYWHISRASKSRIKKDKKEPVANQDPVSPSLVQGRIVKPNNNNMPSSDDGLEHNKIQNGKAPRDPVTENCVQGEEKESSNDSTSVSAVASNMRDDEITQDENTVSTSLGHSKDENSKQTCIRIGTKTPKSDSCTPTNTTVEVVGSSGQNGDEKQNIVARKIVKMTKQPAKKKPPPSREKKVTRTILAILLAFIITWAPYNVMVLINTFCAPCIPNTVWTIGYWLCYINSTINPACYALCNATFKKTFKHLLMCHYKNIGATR

[4] = target: 5-hydroxytryptamine receptor 2B (Homo sapiens, UniProt P41595); format: functional, cell-based
[5] = target: T4, Equilibrative nucleoside transporter 1 (Homo sapiens, UniProt Q99808)
T4 sequence (Q99808 whole entry): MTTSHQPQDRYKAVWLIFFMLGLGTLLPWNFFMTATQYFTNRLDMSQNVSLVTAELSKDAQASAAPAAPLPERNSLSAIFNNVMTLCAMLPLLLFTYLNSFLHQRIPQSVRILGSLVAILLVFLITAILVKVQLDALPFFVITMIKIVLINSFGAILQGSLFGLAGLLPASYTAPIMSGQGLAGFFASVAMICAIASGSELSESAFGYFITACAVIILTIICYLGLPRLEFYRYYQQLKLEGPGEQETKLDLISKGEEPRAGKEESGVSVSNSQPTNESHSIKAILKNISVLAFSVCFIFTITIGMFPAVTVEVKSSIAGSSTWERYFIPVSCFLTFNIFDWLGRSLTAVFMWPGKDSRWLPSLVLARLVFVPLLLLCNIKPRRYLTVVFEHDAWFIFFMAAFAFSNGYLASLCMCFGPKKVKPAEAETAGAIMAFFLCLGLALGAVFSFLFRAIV

[6] = target: Gamma-aminobutyric acid receptor subunit alpha-1 (Rattus norvegicus, UniProt P62813)
[7] = target: Voltage-dependent L-type calcium channel subunit alpha-1C (Rattus norvegicus, UniProt P22002); format: functional
Glucocorticoid receptor = target: T5, Glucocorticoid receptor (Homo sapiens, UniProt P04150)
T5 sequence (P04150 whole entry): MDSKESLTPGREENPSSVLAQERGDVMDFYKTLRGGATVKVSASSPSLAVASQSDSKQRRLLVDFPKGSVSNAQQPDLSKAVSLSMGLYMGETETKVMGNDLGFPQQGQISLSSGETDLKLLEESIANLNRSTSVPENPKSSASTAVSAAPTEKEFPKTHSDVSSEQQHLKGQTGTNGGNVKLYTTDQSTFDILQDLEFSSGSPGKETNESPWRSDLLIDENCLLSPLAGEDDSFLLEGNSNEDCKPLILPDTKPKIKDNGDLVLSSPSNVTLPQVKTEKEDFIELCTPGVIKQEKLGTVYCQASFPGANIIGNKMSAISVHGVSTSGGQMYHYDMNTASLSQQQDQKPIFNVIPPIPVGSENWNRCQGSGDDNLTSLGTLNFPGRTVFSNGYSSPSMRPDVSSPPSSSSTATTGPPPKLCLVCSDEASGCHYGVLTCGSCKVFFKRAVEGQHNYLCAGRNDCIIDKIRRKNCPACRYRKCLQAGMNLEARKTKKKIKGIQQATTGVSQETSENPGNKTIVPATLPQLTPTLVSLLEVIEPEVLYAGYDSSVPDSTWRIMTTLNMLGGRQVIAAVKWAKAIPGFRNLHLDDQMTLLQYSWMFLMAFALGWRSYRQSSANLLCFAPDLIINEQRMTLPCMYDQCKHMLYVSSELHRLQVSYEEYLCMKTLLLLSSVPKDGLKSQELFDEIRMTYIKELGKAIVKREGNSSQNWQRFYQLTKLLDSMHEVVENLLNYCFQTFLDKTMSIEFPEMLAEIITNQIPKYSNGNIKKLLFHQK

Cannabinoid receptor 1 = Cannabinoid receptor 1 (Homo sapiens, UniProt P21554); format: functional, cell-based

Measured: AC50
Note: assay procedure not described here.

Sequence of Cannabinoid receptor 1 (P21554 whole entry): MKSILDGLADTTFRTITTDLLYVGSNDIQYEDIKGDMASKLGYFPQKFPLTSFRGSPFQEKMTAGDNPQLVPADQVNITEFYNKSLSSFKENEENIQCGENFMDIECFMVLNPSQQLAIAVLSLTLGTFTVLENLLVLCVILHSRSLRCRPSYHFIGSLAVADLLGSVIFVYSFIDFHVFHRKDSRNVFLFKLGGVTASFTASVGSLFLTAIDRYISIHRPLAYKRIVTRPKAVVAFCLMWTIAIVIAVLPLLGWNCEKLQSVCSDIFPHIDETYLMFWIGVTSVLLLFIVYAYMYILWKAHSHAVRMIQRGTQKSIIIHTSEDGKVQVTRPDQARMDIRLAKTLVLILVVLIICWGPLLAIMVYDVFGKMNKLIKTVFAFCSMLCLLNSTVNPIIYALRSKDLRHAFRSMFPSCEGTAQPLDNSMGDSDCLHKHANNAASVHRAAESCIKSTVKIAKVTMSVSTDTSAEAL
Sequence of Beta-1 adrenergic receptor (P08588 whole entry): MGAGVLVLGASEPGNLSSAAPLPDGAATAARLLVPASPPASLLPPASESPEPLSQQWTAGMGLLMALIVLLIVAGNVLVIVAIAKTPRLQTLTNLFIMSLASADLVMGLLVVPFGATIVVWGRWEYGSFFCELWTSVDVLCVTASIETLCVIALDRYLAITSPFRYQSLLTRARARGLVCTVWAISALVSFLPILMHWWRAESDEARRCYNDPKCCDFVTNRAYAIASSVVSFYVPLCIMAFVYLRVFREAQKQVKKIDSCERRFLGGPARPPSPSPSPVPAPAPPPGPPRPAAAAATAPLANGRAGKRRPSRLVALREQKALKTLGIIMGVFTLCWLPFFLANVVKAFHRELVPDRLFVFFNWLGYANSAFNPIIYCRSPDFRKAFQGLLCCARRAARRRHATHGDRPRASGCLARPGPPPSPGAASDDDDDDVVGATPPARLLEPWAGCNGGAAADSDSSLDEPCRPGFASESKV
Sequence of Voltage-dependent L-type calcium channel subunit alpha-1C (P22002 whole entry): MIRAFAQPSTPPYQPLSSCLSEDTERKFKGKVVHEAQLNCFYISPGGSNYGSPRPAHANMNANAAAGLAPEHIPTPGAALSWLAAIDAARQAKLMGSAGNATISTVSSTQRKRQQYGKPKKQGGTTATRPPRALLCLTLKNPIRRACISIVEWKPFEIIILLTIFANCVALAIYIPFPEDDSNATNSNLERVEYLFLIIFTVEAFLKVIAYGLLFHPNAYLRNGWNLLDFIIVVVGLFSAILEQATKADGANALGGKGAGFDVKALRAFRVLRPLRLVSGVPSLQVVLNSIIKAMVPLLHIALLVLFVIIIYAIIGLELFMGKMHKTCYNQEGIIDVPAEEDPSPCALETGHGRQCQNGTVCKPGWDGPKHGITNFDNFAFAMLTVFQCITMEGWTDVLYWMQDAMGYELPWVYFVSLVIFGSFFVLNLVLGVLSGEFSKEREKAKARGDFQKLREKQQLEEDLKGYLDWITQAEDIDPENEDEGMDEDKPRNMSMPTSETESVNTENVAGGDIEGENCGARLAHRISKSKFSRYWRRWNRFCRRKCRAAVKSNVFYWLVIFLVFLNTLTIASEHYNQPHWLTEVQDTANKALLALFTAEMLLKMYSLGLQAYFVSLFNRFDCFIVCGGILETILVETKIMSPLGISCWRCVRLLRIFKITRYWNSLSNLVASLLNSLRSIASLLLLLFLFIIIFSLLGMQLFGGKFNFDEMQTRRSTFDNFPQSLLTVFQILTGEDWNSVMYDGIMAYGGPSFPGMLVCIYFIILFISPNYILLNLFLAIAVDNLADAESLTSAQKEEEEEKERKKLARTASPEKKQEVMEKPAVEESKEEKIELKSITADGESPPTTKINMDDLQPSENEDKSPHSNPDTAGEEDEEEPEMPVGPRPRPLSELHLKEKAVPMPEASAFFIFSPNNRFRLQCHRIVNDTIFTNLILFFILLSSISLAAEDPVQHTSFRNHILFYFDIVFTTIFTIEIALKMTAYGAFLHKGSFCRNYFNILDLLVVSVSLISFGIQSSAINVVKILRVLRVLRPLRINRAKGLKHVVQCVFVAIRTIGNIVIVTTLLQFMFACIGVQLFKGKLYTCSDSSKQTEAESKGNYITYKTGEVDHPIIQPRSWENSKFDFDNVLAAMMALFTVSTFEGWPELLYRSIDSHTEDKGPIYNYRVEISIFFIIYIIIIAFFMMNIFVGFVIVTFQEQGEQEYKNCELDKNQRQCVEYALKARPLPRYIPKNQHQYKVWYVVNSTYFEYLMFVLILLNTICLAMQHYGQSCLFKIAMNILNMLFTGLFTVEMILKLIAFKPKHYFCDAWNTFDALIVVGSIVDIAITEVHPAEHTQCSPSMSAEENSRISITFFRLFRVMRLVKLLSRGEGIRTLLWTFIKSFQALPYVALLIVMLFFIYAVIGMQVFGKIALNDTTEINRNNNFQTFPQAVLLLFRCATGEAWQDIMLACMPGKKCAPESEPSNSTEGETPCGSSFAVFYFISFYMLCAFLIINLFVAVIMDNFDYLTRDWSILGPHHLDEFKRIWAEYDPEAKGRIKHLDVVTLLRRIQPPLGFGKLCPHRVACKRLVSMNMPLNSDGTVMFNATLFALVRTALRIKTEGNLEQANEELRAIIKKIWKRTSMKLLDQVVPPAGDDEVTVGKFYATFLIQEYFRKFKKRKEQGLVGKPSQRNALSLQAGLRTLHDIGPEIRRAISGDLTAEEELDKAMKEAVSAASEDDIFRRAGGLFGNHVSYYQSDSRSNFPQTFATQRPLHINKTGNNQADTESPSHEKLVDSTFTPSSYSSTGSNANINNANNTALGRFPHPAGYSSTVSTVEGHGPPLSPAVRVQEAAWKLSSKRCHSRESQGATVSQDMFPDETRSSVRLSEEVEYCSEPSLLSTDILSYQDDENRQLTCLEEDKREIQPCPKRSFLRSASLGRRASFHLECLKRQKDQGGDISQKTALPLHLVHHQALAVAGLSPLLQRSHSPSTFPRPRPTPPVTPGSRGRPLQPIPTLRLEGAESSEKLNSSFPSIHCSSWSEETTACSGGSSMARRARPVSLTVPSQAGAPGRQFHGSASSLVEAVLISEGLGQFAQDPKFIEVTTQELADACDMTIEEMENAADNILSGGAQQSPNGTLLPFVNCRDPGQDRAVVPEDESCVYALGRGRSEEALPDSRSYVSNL
Sequence of Gamma-aminobutyric acid receptor subunit alpha-1 (P62813 whole entry): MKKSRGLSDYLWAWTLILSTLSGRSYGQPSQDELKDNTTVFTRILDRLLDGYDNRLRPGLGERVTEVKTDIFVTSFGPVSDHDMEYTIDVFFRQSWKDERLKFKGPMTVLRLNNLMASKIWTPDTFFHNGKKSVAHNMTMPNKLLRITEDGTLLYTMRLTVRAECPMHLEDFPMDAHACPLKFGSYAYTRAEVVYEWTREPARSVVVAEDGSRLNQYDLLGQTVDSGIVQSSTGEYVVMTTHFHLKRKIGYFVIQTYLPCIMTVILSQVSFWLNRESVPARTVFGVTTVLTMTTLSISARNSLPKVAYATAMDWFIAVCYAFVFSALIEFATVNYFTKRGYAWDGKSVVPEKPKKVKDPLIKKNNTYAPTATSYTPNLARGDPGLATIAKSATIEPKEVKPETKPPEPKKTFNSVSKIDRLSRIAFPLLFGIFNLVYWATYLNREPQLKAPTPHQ
Sequence of 5-hydroxytryptamine receptor 2B (P41595 whole entry): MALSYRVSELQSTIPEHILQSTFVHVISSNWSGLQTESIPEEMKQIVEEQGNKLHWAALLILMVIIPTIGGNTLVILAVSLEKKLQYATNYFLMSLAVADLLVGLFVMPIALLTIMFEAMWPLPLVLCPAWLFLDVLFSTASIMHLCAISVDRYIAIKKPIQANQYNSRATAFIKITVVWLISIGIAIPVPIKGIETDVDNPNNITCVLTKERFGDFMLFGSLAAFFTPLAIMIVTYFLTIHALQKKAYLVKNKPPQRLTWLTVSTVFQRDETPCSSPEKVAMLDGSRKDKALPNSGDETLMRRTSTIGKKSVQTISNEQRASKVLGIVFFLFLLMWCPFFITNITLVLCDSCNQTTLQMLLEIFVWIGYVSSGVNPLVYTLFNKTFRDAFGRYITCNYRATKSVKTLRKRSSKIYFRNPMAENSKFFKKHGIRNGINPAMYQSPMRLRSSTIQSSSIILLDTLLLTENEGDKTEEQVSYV

O=C1C(O)=C([C@H]2CC[C@H](c3ccc(Cl)cc3)CC2)C(=O)c2ccccc21 [ATOVAQUONE]
not listed: Glucocorticoid receptor | Cannabinoid receptor 1
> 30 µM: all other assays above

COc1ccc(CCNCC(O)COc2cccc(C)c2)cc1OC (stereo not given) [BEVANTOLOL]
> 30 µM: Cannabinoid receptor 1 | [5]
0.026 µM: [1]
14 µM: [4]
> 10 µM: all other assays above

Brc1c(NC2=NCCN2)ccc2nccnc12 [BRIMONIDINE]
not listed: [7]
> 30 µM: all other assays above

CC(CC1c2ccccc2CCc2ccccc21)CN(C)C (stereo not given) [BUTRIPTYLINE]
> 30 µM: Cannabinoid receptor 1 | [4] | [6]

CC(C)(C)NCC(O)COc1cccc2c1CCC(=O)N2 (stereo not given) [CARTEOLOL]
> 30 µM: Cannabinoid receptor 1
not listed: [1]
> 10 µM: all other assays above

Nc1nc(Cl)nc2c1ncn2[C@H]1C[C@H](O)[C@@H](CO)O1 [CLADRIBINE]
not listed: [7]
> 30 µM: all other assays above

Clc1ccccc1C(c1ccccc1)(c1ccccc1)n1ccnc1 [CLOTRIMAZOLE]
> 30 µM: Cannabinoid receptor 1
> 10 µM: [1] | [3] | [4] | [6]
13.6 µM: [7]

COc1ccc2c3c1O[C@H]1[C@@H](O)CC[C@H]4[C@@H](C2)N(C)CC[C@@]341 [DIHYDROCODEINE]
> 30 µM: Cannabinoid receptor 1 | [4] | [6]

NC(=O)OCC(COC(N)=O)c1ccccc1 [FELBAMATE]
not listed: Cannabinoid receptor 1
> 10 µM: all other assays above

Fc1ccc(C(c2ccccc2)(c2ccccc2F)n2ccnc2)cc1 (stereo not given) [FLUTRIMAZOLE]
15 µM: Adenosine receptor A3
> 10 µM: [5]
> 30 µM: all other assays above

Cc1c(OCC(F)(F)F)ccnc1C[S+]([O-])c1nc2ccccc2[nH]1 (stereo not given) [LANSOPRAZOLE]
> 30 µM: Glucocorticoid receptor | [2] | Cannabinoid receptor 1 | [5]
7.77 µM: Adenosine receptor A3
> 10 µM: all other assays above

NC(=O)CN1CC(O)CC1=O (stereo not given) [OXIRACETAM]
not listed: [7]
> 30 µM: all other assays above

Cc1cc(C(C)(C)C)c(O)c(C)c1CC1=NCCN1 [OXYMETAZOLINE]
> 30 µM: Cannabinoid receptor 1 | Adenosine receptor A3 | [3]

C[C@H]1COc2c(C3(N)CC3)c(F)cc3c(=O)c(C(=O)O)cn1c23 [PAZUFLOXACIN]
> 30 µM: Glucocorticoid receptor
not listed: Cannabinoid receptor 1
> 10 µM: all other assays above

C[C@@H]1O[C@@H](O[C@@H]2C=C3CC[C@@H]4[C@H](CC[C@]5(C)[C@@H](c6ccc(=O)oc6)CC[C@]45O)[C@@]3(C)CC2)[C@H](O)[C@H](O)[C@H]1O [PROSCILLARIDIN]
not listed: [5]
> 30 µM: all other assays above

CC/C(=C(\c1ccccc1)c1ccc(OCCN(C)C)cc1)c1ccccc1 [TAMOXIFEN]
> 10 µM: [3] | [4] | [6] | [7]
17.6 µM: [1]

C#C[C@]1(O)CC[C@H]2[C@@H]3[C@H](C)CC4=C(CCC(=O)C4)[C@H]3CC[C@@]21C [TIBOLONE]
8.1 µM: Adenosine receptor A3
not listed: Glucocorticoid receptor
> 30 µM: all other assays above

COc1cccc(C2(O)CCCCC2CN(C)C)c1 (stereo not given) [TRAMADOL]
> 10 µM: [1] | [4] | [6] | [7]
not listed: [3]
> 30 µM: all other assays above

Cc1nnc2n1-c1ccc(Cl)cc1C(c1ccccc1Cl)=NC2 [TRIAZOLAM]
> 10 µM: [1] | [3] | [4] | [6] | [7]
> 30 µM: all other assays above

CC1(C)CCC(CN2CCN(c3ccc(C(=O)NS(=O)(=O)c4ccc(NCC5CCOCC5)c([N+](=O)[O-])c4)c(Oc4cnc5[nH]ccc5c4)c3)CC2)=C(c2ccc(Cl)cc2)C1 [VENETOCLAX]
2.3 µM: Adenosine receptor A3
